Assay results reported in article PMC6370756 (2019).

Columns and labels:
[1] = system: SP-PGQ-3 (DNA, G4) GGGCTAATAGGGAGAGCAGGGACGGGG; assay: ITC; conditions: K+ (10 mM potassium phosphate); pH 7.2, 25 °C; two-site fit, high-affinity site; site 1 of 2
[2] = system: SP-PGQ-1 (DNA, G4) GGGCAACTTGGCTGGGGTCTAGTTCCACGGGACGGG; assay: ITC; conditions: K+ (10 mM potassium phosphate); pH 7.2, 25 °C; two-site fit, high-affinity site; site 1 of 2

Ka [1]: 2.49e+07 M⁻¹ | Ka [2]: 1.59e+06 M⁻¹
SMILES: C[n+]1ccc(-c2c3nc(c(-c4cc[n+](C)cc4)c4ccc([nH]4)c(-c4cc[n+](C)cc4)c4nc(c(-c5cc[n+](C)cc5)c5ccc2[nH]5)C=C4)C=C3)cc1
